Common to all, as to assay type: cell-based
For assay [1], the target named is human α1H T-type channels (Homo sapiens, UniProt O95180). As to the kind of experiment: T-type calcium channel block, whole cell patch clamp, α1H. As to conditions: HEK cells stably expressing human α1H; mainly non-inactivated protocol; values above 10,000 nM represented as 10000. The method, then:
(§1) T-type calcium channel blocking activity was assayed in human embryonic kidneycells, HEK 293 (Invitrogen), stably transfected with the T-type calcium channel subunits. Briefly, cells were cultured in Dulbecco's modified eagle medium (DMEM) supplemented with 10% fetal bovine serum, 200 U/ml penicillin, and 0.2 mg/mL streptomycin at 37° C. with 5% CO2. At 85% confluency, cells were split with 0.25% trypsin/1 mM EDTA and plated at 10% confluency on glass coverslips. At 12 hours, the medium was replaced, and the cells stably transfected using a standard calcium phosphate protocol and the appropriate calcium channel cDNA's. Fresh DMEM was supplied, and the cells transferred to 28° C./5% CO2.
(§2) Standard patch-clamp techniques were employed to identify blockers of T-type currents. Briefly, previously described HEK cell lines stably expressing human α1G, α1H, and α1I T-type channels were used for all the recordings (passage #: 4-20, 37° C., 5% CO2). Whole cell patch clamp experiments were performed using an Axopatch 200B amplifier (Axon Instruments, Burlingame, Calif.) linked to a personal computer equipped with pCLAMP software. Data were analyzed using Clampfit (Axon Instruments) and SigmaPlot 4.0 (Jandel Scientific). To obtain T-type currents, plastic dishes containing semi-confluent cells were positioned on the stage of a ZEISS AXIOVERT S100 microscope after replacing the culture medium with external solution (Table 2). Whole-cell patches were obtained using pipettes (borosilicate glass with filament, O.D.: 1.5 mm, I.D.: 0.86 mm, 10 cm length), fabricated on a SUTTER P-97 puller with resistance values of ˜5 MΩ (Table 3).
(§3) T-type currents were reliably obtained by using two voltage protocols: • “non-inactivating,” and • “inactivation.”
(§4) Test compounds were dissolved in external solution, 0.1-0.01% DMSO. After ˜10 minutes rest, they were applied by gravity close to the cell using a WPI microfil tubing. The “non-inactivated” pre-pulse was used to examine the resting block of a compound. The “inactivated” protocol was employed to study voltage-dependent block.
On the technique in general: Patch clamp records ionic current or voltage across a cell membrane.

For assay [2], the target named is N-type calcium channel subunits (α1B, α2δ, and β3a) (Homo sapiens, UniProt Q00975). Kind of assay: Block of Cav2.2 channel, whole cell voltage clamp, manual and PatchXpress. As to conditions: Table 5; table follows Assay Example 3 (whole cell voltage clamp / PatchXpress); assay not given. The procedure, abridged: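 Percent block taken as current amplitude ratio with versus without compound, applied in rising doses; IC50 fitted where one cell received multiple doses. Protocol: 50 ms pulses to +20 mV at 0.067 Hz from […] or −90 mV holding; P/n leak subtraction, no junction-potential correction; manual and PatchXpress recordings.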

Assay [3] deals with human α1G T-type channels (Homo sapiens, UniProt O43497). Kind of assay: T-type calcium channel block, whole cell patch clamp, α1G. As to conditions: HEK cells stably expressing human α1G; mainly non-inactivated protocol; values above 10,000 nM represented as 10000. The method, then:
as §1, §2, §3, §4

N-type calcium channel subunits (α1B, α2δ, and β3a), sequence (Q00975 whole entry): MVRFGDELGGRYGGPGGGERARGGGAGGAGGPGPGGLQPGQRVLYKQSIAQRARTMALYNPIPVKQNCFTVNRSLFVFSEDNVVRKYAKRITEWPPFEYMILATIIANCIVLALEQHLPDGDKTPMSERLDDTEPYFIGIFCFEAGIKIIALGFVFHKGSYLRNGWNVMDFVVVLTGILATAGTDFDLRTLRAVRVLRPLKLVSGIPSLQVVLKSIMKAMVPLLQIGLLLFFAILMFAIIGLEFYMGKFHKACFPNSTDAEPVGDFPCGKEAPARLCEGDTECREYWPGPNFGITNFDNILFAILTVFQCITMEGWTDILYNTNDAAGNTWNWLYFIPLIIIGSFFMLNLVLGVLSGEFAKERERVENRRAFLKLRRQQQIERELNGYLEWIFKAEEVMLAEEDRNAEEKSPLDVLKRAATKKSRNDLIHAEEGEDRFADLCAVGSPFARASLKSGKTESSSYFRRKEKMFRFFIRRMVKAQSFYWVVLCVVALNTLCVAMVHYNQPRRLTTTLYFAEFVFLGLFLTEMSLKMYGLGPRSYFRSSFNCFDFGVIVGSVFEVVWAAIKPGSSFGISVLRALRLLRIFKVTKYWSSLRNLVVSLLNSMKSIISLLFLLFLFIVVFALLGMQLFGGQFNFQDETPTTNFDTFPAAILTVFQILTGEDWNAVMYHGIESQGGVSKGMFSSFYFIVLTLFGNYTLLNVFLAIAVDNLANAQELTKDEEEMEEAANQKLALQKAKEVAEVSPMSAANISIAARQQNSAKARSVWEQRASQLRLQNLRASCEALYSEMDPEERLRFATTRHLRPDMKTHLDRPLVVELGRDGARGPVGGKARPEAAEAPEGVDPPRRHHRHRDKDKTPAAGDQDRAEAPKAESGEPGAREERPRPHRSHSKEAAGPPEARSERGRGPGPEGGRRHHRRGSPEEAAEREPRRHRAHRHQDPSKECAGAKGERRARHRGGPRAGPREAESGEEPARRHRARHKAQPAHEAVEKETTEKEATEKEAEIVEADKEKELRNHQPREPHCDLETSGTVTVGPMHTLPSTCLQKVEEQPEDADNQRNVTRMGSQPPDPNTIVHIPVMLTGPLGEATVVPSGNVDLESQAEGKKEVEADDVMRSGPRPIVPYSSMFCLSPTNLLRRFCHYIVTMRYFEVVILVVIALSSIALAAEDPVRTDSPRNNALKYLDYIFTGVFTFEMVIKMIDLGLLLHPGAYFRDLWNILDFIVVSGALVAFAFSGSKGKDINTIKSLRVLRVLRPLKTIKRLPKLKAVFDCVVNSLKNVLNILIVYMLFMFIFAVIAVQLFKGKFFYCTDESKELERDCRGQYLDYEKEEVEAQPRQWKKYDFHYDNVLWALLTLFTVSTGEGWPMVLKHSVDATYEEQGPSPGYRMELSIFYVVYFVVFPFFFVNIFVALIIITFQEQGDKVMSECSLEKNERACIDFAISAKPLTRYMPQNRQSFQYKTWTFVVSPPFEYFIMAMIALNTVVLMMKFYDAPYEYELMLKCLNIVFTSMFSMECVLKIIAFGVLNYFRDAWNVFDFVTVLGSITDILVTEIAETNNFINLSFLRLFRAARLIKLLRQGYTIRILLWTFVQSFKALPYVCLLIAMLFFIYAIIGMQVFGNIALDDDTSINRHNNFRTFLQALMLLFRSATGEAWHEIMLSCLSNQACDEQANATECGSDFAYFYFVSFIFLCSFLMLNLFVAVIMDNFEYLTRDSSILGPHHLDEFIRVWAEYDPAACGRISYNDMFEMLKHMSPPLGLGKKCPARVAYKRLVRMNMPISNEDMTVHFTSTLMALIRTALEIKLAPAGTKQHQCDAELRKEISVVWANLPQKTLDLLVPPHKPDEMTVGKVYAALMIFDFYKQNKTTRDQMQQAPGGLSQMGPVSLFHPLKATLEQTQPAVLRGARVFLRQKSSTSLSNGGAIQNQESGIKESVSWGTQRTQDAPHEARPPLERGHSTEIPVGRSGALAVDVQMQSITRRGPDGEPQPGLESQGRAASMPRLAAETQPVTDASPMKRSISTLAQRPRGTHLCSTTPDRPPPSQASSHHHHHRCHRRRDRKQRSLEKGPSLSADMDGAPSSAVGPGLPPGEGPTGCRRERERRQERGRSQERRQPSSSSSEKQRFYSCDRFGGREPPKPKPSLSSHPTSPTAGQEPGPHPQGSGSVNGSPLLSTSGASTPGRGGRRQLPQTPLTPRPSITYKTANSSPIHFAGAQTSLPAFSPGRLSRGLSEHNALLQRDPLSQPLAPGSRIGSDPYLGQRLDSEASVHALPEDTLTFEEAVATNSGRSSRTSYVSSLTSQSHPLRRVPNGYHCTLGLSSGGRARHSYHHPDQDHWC
N-type calcium channel subunits (α1B, α2δ, and β3a), sequence (P54289 25-1103 partner): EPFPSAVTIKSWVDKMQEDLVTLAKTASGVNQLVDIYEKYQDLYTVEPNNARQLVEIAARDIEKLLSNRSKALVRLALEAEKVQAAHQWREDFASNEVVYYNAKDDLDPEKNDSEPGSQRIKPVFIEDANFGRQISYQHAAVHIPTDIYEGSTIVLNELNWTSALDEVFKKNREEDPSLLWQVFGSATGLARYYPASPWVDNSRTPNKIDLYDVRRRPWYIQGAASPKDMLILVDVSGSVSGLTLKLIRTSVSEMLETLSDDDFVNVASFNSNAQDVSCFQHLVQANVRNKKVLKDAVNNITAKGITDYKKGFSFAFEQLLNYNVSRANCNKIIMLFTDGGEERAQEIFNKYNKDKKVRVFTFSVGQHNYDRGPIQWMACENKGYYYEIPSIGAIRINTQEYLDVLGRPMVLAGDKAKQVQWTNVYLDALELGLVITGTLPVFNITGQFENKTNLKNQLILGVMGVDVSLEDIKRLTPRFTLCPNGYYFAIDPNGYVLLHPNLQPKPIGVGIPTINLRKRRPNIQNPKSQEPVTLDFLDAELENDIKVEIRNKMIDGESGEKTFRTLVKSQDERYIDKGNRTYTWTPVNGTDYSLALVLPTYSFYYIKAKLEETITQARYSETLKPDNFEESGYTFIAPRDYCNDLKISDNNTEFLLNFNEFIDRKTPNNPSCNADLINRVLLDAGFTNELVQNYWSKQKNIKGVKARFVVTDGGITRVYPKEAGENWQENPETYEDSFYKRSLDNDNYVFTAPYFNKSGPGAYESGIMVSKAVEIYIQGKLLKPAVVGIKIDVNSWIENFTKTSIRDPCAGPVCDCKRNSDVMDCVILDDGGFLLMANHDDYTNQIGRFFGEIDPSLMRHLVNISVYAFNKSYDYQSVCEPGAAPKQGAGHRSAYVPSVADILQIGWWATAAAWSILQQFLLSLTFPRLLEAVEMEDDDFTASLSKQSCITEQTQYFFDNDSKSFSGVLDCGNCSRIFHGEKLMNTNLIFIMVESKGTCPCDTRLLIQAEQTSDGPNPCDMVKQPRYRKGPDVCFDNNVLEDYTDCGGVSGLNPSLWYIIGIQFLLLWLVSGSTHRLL
N-type calcium channel subunits (α1B, α2δ, and β3a), sequence (P54284 whole entry partner): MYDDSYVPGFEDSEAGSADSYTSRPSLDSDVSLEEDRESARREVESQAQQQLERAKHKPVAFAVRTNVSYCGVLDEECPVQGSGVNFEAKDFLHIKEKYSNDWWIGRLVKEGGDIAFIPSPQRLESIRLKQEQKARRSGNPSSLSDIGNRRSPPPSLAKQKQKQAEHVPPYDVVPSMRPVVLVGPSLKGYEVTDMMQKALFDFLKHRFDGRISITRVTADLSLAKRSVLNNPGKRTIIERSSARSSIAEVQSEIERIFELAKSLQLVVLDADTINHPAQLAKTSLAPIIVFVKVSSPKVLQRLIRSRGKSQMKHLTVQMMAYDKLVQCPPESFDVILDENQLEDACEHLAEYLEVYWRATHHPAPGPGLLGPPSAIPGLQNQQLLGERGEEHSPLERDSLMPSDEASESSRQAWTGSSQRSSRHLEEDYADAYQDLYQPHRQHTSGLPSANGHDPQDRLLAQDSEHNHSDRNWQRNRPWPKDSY

As usually defined, the IC50 is the point on the concentration scale where inhibition reaches its midpoint. Regarding `Cc1nc(S(=O)(=O)N[C@H]2CC[C@@](F)(S(=O)(=O)c3cccc(C(F)(F)F)c3)CC2)cn1C` [Compound 294], the IC50 is > 10000 nM in assay [1] and 3760 nM in assay [2]. In the same order, the values of `CC1(NC(=O)c2ccc(OC(F)(F)F)cc2)CCC(S(=O)(=O)c2cccc(C(F)(F)F)c2)CC1` (stereo not shown) [Compound 315, N-(1-methyl-4-(3-(trifluoromethyl)phenylsulfonyl)cyclohexyl)-4-(trifluoromethoxy)benzamide] are > 10000 nM and 1230 nM. In the same order, the values of `COc1cc(C(=O)NC[C@H]2C[C@@H](S(=O)(=O)c3cccc(C(F)(F)F)c3)C2)cc(Cl)n1` [Compound 380, 2-chloro-6-methoxy-N-(((1S,3S)-3-(3-(trifluoromethyl)phenylsulfonyl)cyclobutyl)methyl)isonicotinamide] are > 10000 nM and 1470 nM. In the same order, the values of `O=C(N[C@H]1CC[C@H](CS(=O)(=O)c2cccc(C(F)(F)F)c2)CC1)c1cc(F)cc(C(F)(F)F)c1` [Compound 107, 3-fluoro-5-(trifluoromethyl)-N-((1R,4R)-4-((3-(trifluoromethyl)phenylsulfonyl)methyl)cyclohexyl)benzamide] are > 10000 nM and 2710 nM. With `O=C(N[C@H]1CC[C@H](S(=O)(=O)c2cccc(C(F)(F)F)c2)CC1)c1cc(C(F)(F)F)ccn1` [Compound 61, 4-(trifluoromethyl)-N-((1R,4R)-4-(3-(trifluoromethyl)phenylsulfonyl)cyclohexyl)picolinamide], the IC50 in assay [1] is > 10000 nM; in assay [2] it was 1650 nM. Regarding `Cn1cc(C(=O)N[C@H]2CC[C@H](S(=O)(=O)c3cccc(C(F)(F)F)c3)CC2)c(C(F)(F)F)n1` [Compound 64, 1-methyl-3-(trifluoromethyl)-N-((1R,4R)-4-(3-(trifluoromethyl)phenylsulfonyl)cyclohexyl)-1H-pyrazole-4-carboxamide], the values for the IC50 in assay [1] and in assay [2] were > 10000 nM and 550 nM, respectively. In the same order, the values of `CC(C)(C)S(=O)(=O)c1ccsc1C(=O)N[C@H]1CC[C@H](CS(=O)(=O)c2cccc(C(F)(F)F)c2)CC1` [Compound 178, 3-(tert-butylsulfonyl)-N-((1R.4R)-4-((3-(trifluoromethyl)phenylsulfonyl)methyl)cyclohexyl)thiophene-2-carboxamide] are > 10000 nM and 250 nM. Turning to `O=C(CN[C@H]1C[C@H](S(=O)(=O)c2cccc(C(F)(F)F)c2)C1)NC1CCC(F)(F)CC1` [Compound 428, N-(4,4-ditluorocyclohexyl)-2-((1R,3R)-3-(3-(trifluoromethyl)phenylsulfonyl)cyclobutylamino) acetamide], the IC50 in assay [1] was > 10000 nM; in assay [2] it was 960 nM. In the case of `COc1cc(F)cc(C(=O)N[C@H]2CC[C@@H](S(=O)(=O)c3cccc(C(F)(F)F)c3)CC2)c1` [Compound 39, 3-fluoro-5-methoxy-N-((1S,4S)-4-(3-(trifluoromethyl)phenylsulfonyl)cyclohexyl)benzamide], the IC50 in assay [1] is > 10000 nM; in assay [2], 410 nM. In the same order, the values of `CC([C@H]1C[C@H](NC(=O)c2ccc(F)c(C(F)(F)F)c2)C1)S(=O)(=O)c1cccc(C(F)(F)F)c1` (stereo partly drawn) [Compound 433, 4-fluoro-3-(trifluoromethyl)-N-((1R,3R)-3-((R)-1-(3-(trifluoromethyl)phenylsulfonyl)ethyl)cyclobutyl)benzamide] are > 10000 nM and 220 nM. For the compound `CC(C)(CCNC(=O)c1ccc(F)c(C(F)(F)F)c1)S(=O)(=O)c1cccc(C(F)(F)F)c1` [Compound 466, 4-fluoro-N-(3-methyl-3-(3-(trifluoromethyl)phenylsulfonyl)butyl)-3-(trifluoromethyl)benzamide], the concentration for half-maximal inhibition (IC50) in assay [1] amounted to 550 nM. Regarding `O=C(CN[C@H]1CC[C@H](S(=O)(=O)c2cccc(C(F)(F)F)c2)CC1)NCC(F)(F)F` [Compound 68, N-(2,2,2-trifluoroethyl)-2-((1R,4R)-4-(3-(trifluoromethyl)phenylsulfonyl)cyclohexylamino)acetamide], the IC50 in assay [1] was > 10000 nM; in assay [2], 1720 nM. In the same order, the values of `COc1cc(C(=O)NC[C@H]2C[C@H](S(=O)(=O)c3cccc(C(F)(F)F)c3)C2)cc(Cl)n1` [Compound 363, 2-chloro-6-methoxy-N-(((1R,3R)-3-(3-(trifluoromethyl)phenylsulfonyl)cyclobutyl)methyl)isonicotinamide] are > 10000 nM and 310 nM. In the same order, the values of `O=C(NC[C@H]1C[C@H](S(=O)(=O)c2cccc(C(F)(F)F)c2)C1)c1ccnc(C(F)(F)F)n1` [Compound 362, 2-(trifluoromethyl)-N-(((1R,3R)-3-(3-(trifluoromethyl)phenylsulfonyl)cyclobutyl)methyl)pyrimidine-4-carboxamide] are > 10000 nM and 370 nM.

With `CC(C)(C)NC(=O)CNC[C@H]1CC[C@@H](S(=O)(=O)c2cccc(C(F)(F)F)c2)CC1` [Compound 35, N-tert-butyl-2-(((1S,4S)-4-(3-(trifluoromethyl)phenylsulfonyl)cyclohexyl)methylamino)acetamide], the IC50 in assay [1] is > 10000 nM. As for `Cn1nc(C(F)(F)F)cc1C(=O)N[C@H]1CC[C@@H](S(=O)(=O)c2cc(F)cc(C(F)(F)F)c2)CC1` [Compound 321, N-((1S,4S)-4-(3-fluoro-5-(trifluoromethyl)phenylsulfonyl)cyclohexyl)-1-methyl-3-(trifluoromethyl)-1Hpyrazole-5-carboxamide], the IC50 was > 10000 nM in assay [1] and 1920 nM in assay [2]. In the same order, the values of `Cn1cc(C(=O)N[C@H]2CC[C@@H](S(=O)(=O)c3cccc(C(F)(F)F)c3)CC2)c(C(F)(F)F)n1` [Compound 45, 1-methyl-3-(trifluoromethyl)-N-((1S,4S)-4-(3-(trifluoromethyl)phenylsulfonyl)cyclohexyl)-1H-pyrazole-4-carboxamide] are > 10000 nM and 1290 nM. In the same order, the values of `O=C(NC[C@H]1C[C@@H](S(=O)(=O)c2cccc(C(F)(F)F)c2)C1)c1cc(F)cc(Cl)c1` [Compound 381, 3-chloro-5-fluoro-N-(((1S,3S)-3-(3-(trifluoromethyl)phenylsulfonyl)cyclobutyl)methyl)benzamide] are > 10000 nM and 590 nM. In the same order, the values of `CCN(CC)C(=O)CN[C@H]1CC[C@@H](S(=O)(=O)c2cccc(C(F)(F)F)c2)CC1` [Compound 51, N,N-diethyl-2-((1S,4S)-4-(3-(trifluoromethyl)phenylsulfonyl)cyclohexylamino)acetamide] are > 10000 nM and 1510 nM. Consider “6-fluoro-N-((1R,4R)-4-((3- (trifluoromethyl)phenylsulfonyl) methyl)cyclohexyl)-1H- benzo[d]imidazole-2-carboxamide [Compound 110]”, for which the IC50 in assay [1] is > 10000 nM; in assay [2], 6020 nM. In the same order, the values of `O=C(CN[C@H]1CC[C@H](CS(=O)(=O)c2cccc(C(F)(F)F)c2)CC1)Nc1ccccn1` [Compound 120, N-(pyridin-2-yl)-2-((1R,4R)-4-((3-(trifluoromethyl)phenylsulfonyl)methyl)cyclohexylamino)acetamide] are > 10000 nM and 580 nM.

Consider `O=C(Nc1ccc(Oc2ccc(Cl)cc2)cc1)[C@H]1C[C@H](S(=O)(=O)c2cccc(C(F)(F)F)c2)C1` [Compound 404, (1R,3R)-N-(4-(4-chlorophenoxy)phenyl)-3-(3-(trifluoromethyl)phenylsulfonyl)cyclobutane carboxamide], for which the results for the IC50 in assay [1] and in assay [2] were > 10000 nM and 3330 nM, respectively. In the same order, the values of `CC(C)(C(=O)N[C@H]1CC[C@@](F)(S(=O)(=O)c2cc(F)cc(C(F)(F)F)c2)CC1)S(=O)(=O)c1cccc(C(F)(F)F)c1` [Compound 292, N-((1S,4S)-4-fluoro-4-(3-fluoro-5-(trifluoromethyl)phenylsulfonyl)cyclohexyl)-2-methyl-2-(3-(trifluoromethyl)phenylsulfonyl) propanamide] are > 10000 nM and 130 nM. Take `O=S(=O)(N[C@H]1CC[C@@](F)(S(=O)(=O)c2cccc(C(F)(F)F)c2)CC1)c1ccc(C(F)(F)F)cc1` [Compound 301, N-((1S,4S)-4-fluoro-4-(3-(trifluoromethyl)phenylsulfonyl)cyclohexyl)-4-(trifluoromethyl) benzenesulfonamide]: the values for the IC50 in assay [3] and in assay [2] were > 10000 nM and 530 nM, respectively.

Values taken from patent US20120245137A1 (Zalicus Pharmaceuticals Ltd., priority 2009, published 2012).
